Test results from patent publication EP3246029A1, “PHARMACEUTICAL COMBINATION OF NINTEDANIB AND CAPECITABINE FOR THE TREATMENT OF COLORECTAL CANCER” (BOEHRINGER INGELHEIM INTERNATIONAL GMBH, priority 2016, dated 2017).

What was measured:
[1] = test system: HT-29 xenografts (human CRC tumor cell line); experiment: in vivo tumor xenograft experiment, subcutaneous HT-29 xenografts (Example A); settings: nude mice, suboptimal doses, 28 days of treatment
Description: In order to analyse the anti-tumor effects of combining the inhibition of tumor angiogenesis by interfering with the VEGFR, FGFR and PDGFR signalling cascades with the established anti-proliferative treatment modality of capecitabine (Xeloda®) in a xenograft model of CRC the following in vivo experiment is performed. Nude mice carrying established subcutaneous HT-29 xenografts (human CRC tumor cell line) are randomized and treated with either nintedanib or capecitabine alone or with the combination of both drugs. After 28 days of treatment the tumors on the control treated mice reach the endpoint and are in average […] in volume. […] TGI = (1−(Xtreated,final−Xtreated,day1)/(Xcontrol,final−Xcontrol,day1))*100% [formula] where X = mean tumor weigh, final is day 28
The weight gain of the mice in the treatment groups in comparison to the weight of the control mice is reduced, but nevertheless well tolerated.

[2] = in adults; cited from earlier work
HT-29 = experiment: in vivo anti-tumor efficacy, HT-29 xenograft model; settings: Colorectal, HT-29, 100mg/kg/d
HT-29 large tumors = experiment: in vivo anti-tumor efficacy, HT-29 large tumors xenograft model; settings: Colorectal
GS-9L = experiment: in vivo anti-tumor efficacy, GS-9L syngeneic rat tumor model; settings: Glioblastoma, 50mg/kg/d
FaDu = experiment: in vivo anti-tumor efficacy, FaDu xenograft model; settings: Head and neck, 100mg/kg/d
NCI-H460 = experiment: in vivo anti-tumor efficacy, NCI-H460 xenograft model; settings: Lung (non-small-cell), NCI-H460, 25mg/kg/d
Calu-6 = experiment: in vivo anti-tumor efficacy, Calu-6 xenograft model; settings: Lung (non-small-cell), Calu-6, 50mg/kg/d
SKOV3 = experiment: in vivo anti-tumor efficacy, SKOV3 xenograft model; settings: Ovarian, SKOV3, 50mg/kg/d
PAC-120 = experiment: in vivo anti-tumor efficacy, PAC-120 xenograft model; settings: Prostate (hormone-dependent), PAC-120, 100mg/kg/d
Caki-1 = experiment: in vivo anti-tumor efficacy, Caki-1 xenograft model; settings: Renal, Caki-1, 100mg/kg/d
Rip-Tag = experiment: in vivo anti-tumor efficacy, Rip-Tag murine transgenic pancreas model

Structure (SMILES)	TGI value [1] [%]	AUC [2] [ng·h/mL]	Cmax [2] [ng/mL]	bioavailability [2]	T/C (HT-29)	Efficacy (HT-29 large tumors)	T/C (GS-9L)	T/C (FaDu)	T/C (NCI-H460)	T/C (Calu-6)	T/C (SKOV3)	T/C (PAC-120)	T/C (Caki-1)	Efficacy (Rip-Tag)
CCCCCOC(=O)Nc1nc(=O)n([C@@H]2O[C@H](C)[C@@H](O)[C@H]2O)cc1F [capecitabine, 5'-deoxy-5-fluoro-N-[(pentyloxy)carbonyl]-cytidine]	50	5960	3900	≈ 100%	–	–	–	–	–	–	–	–	–	–
COC(=O)c1ccc2c(c1)NC(=O)/C2=C(\Nc1ccc(N(C)C(=O)CN2CCN(C)CC2)cc1)c1ccccc1 [nintedanib, 3-Z-[1-(4-(N-((4-methyl-piperazin-1-yl)-methylcarbonyl)-N-methyl-amino)-anilino)-1-phenyl-methylene]-6-methoxycarbonyl-2-indolinone]	35	–	–	–	T/C 16% @ 100mg/kg/d	tumor volume reduction	T/C 32% @ 50mg/kg/d	T/C 11% @ 100mg/kg/d	T/C 54% @ 25mg/kg/d	T/C 24% @ 50mg/kg/d	T/C 19% @ 50mg/kg/d	T/C 34% @ 100mg/kg/d	T/C 13% @ 100mg/kg/d	interference with tumor formation
